Measurements from US7015228B2, “4-amino-2-(2-pyridyl)pyrimidines as microbicidal active substances” (Ciba Specialty Chemicals Corporation, priority 2001, dated 2006).
≈ marks a conversion by molar mass, not a printed value.

Experiments:
[1] = tested on: S. choleraesuis ATCC 10708; assay: Determination of the bactericidal activity (logarithmic reduction in organism count); format: cell-based, Salmonella choleraesuis; conditions: contact for 30 minutes at a substance concentration of 120 μg/mL
Protocol: (§1) Determination of the Bactericidal Activity of Selected Compounds
(§2) Casein-soybean flour-peptone broth for preparation of pre-cultures of test bacteria
(§3) Examples of Test Organisms:
(§4) • Staphylococcus aureus ATCC 6538 • Escherichia coli ATCC 10536 • Salmonella choleraesuis ATCC 10708 Procedure:
(§5) The test substances are dissolved in dimethyl sulfoxide (DMSO) and tested in a concentration of 120 μg/ml.
(§6) Bacteria are incubated overnight in CASO broth and adjusted to an organism count of 1–5×10^5 CFU/ml using 0.85% sodium chloride solution.
(§7) The test substances are pre-pipetted into microtitre plates in amounts of 8 μl per well.
(§8) The adjusted test organism suspensions are added in amounts of 192 μl per well to the test substances and mixed. After defined contact times, the test batches are mixed, an aliquot is withdrawn and diluted in several steps in a dilution series of 1:10 in a suitable inactivation medium.
The test plates are incubated for 24 hours at 37° C. […]
(§9) One microtitre plate is used for each test organism.
(§10) All the substances are tested in duplicate.

S. aureus ATCC 6538 = assay: as above; format: cell-based, Staphylococcus aureus; conditions: contact for 30 minutes at a substance concentration of 120 μg/mL
Protocol: as §1, §2, §3, §4, §5, §6, §7, §8
The test plates are incubated for 24 hours at 37° C.
(§11) After incubation, the growth is determined on the basis of the turbidity of the test batches (optical density) at 620 nm in a microplate reader.
as §9, §10

E. coli NCTC 8196 = assay: as above; format: cell-based, Escherichia coli; conditions: contact for 30 minutes at a substance concentration of 120 μg/mL
[2] = tested on: S. epidermidis ATCC 12228; assay: Minimum inhibitory concentration (MIC), further microorganisms; format: cell-based; conditions: Table 8; * = significant inhibition of growth, but not complete inhibition
Protocol: (§12) Determination of the Minimum Inhibitory Concentration (MIC Value) in Microtitre Plates
(§13) Casein-soybean flour-peptone broth for preparation of pre-cultures of test bacteria and yeast.
(§14) Mycological slant agar for the pre-culture of moulds
(§15) The test substances are pre-dissolved in dimethyl sulfoxide (DMSO) and tested in a dilution series of 1:2.
(§16) Bacteria and yeast are cultured overnight in CASO broth, the mould is cultured overnight on mycological slant agar, and washed off using 10 ml of 0.85% sodium chloride solution (+0.1% Triton X-100).
(§17) All the test organisms are adjusted to an organism count of 1–5×10^6 CFU/ml using 0.85% sodium chloride solution.
as §7
(§18) Pre-diluted organism suspensions are diluted 1:100 in CASO broth (bacteria and yeast) or Sabouraud 2% glucose broth (mould) and are added in amounts of 192 μl per well to the test substances.
(§19) The test batches are incubated for 48 hours at 37° C. (bacteria and yeast) or for 5 days at 28° C. (mould).
as §11
(§20) The minimum inhibitory concentration (MIC value) is the concentration of substance at which there is found (compared to the growth of the control) an appreciable inhibition of growth (≦20% growth) of the test organisms.
(§21) One microtitre plate is used for each test organism and substance concentration. All the substances are tested in duplicate.

[3] = tested on: Staphylococcus aureus ATCC 9144; assay: as above; format: cell-based; conditions: Table 8; * = significant inhibition of growth, but not complete inhibition
Protocol: as §12, §13, §14, §15, §16, §17, §7, §18, §19, §11, §20, §21

[4] = tested on: Enterococcus hirae ATCC 10541; assay: as above; format: cell-based; conditions: Table 8; * = significant inhibition of growth, but not complete inhibition
Protocol: as §12, §13, §14, §15, §16, §17, §7, §18, §19, §11, §20, §21

[5] = tested on: Micrococcus luteus ATCC 9341; assay: as above; format: cell-based; conditions: Table 8; * = significant inhibition of growth, but not complete inhibition
Protocol: as §12, §13, §14, §15, §16, §17, §7, §18, §19, §11, §20, §21

[6] = tested on: Trichophyton mentagrophytes ATCC 9533; assay: as above; format: cell-based; conditions: Table 8; * = significant inhibition of growth, but not complete inhibition
Protocol: as §12, §13, §14, §15, §16, §17, §7, §18, §19, §11, §20, §21

[7] = tested on: Epidermophyton floccosum DSM 10709; assay: as above; format: cell-based; conditions: Table 8; * = significant inhibition of growth, but not complete inhibition
Protocol: as §12, §13, §14, §15, §16, §17, §7, §18, §19, §11, §20, §21

[8] = tested on: Staphylococcus hominis DMS 20328; assay: Minimum inhibitory concentration (MIC) in microtitre plates; format: cell-based; conditions: Table 7; 48 hours at 37° C.; MIC = ≦20% growth compared to control
Protocol: as §12, §13, §14, §3, §15, §16, §17, §7, §18, §19, §11, §20, §21

[9] = tested on: Escherichia coli NCTC 8196; assay: as above; format: cell-based; conditions: for Minimum inhibitory concentration (MIC) E. coli: Table 7, 48 hours at 37° C., MIC = ≦20% growth compared to control; for Minimum inhibitory concentration (MIC) E. coli NCTC 8196: Table 8, * = significant inhibition of growth, but not complete inhibition
Protocol: as §12, §13, §14, §3, §15, §16, §17, §7, §18, §19, §11, §20, §21

Structure (SMILES)	Logarithmic reduction in organism count, S. choleraesuis ATCC 10708 [1]	Logarithmic reduction in organism count, S. aureus ATCC 6538 (S. aureus ATCC 6538)	Logarithmic reduction in organism count, E. coli NCTC 8196 (E. coli NCTC 8196)	Minimum inhibitory concentration (MIC) S. epidermidis ATCC 12228 [2]	Minimum inhibitory concentration (MIC) Staphylococcus aureus ATCC 9144 [3]	Minimum inhibitory concentration (MIC) Enterococcus hirae ATCC 10541 [4]	Minimum inhibitory concentration (MIC) Micrococcus luteus ATCC 9341 [5]	Minimum inhibitory concentration (MIC) Trichophyton mentagrophytes ATCC 9533 [6]	Minimum inhibitory concentration (MIC) Epidermophyton floccosum DSM 10709 [7]	Minimum inhibitory concentration (MIC) S. hominis [8]	Minimum inhibitory concentration (MIC) E. coli [9]	Minimum inhibitory concentration (MIC) E. coli NCTC 8196 [9]
CCc1c(C)nc(-c2ccccn2)nc1NCCCCCCCCCCCCN [Compound of formula 7]	<1 log	2 log	≦1 log									
CCCCCCCCNc1nc(-c2ccccn2)nc(C)c1CC [Compound of formula 9]	<1 log	<1 log	<1 log									
CCCCCCCCCNc1nc(-c2ccccn2)nc(C)c1CC [Compound of formula 10]	<1 log	1–2 log	<1 log									
CCCCCCCCNc1cc(C(C)(C)C)nc(-c2ccccn2)n1 [Compound of formula 57]	<1 log		<1 log									
CC(C)(C)c1cc(NCCc2ccccc2)nc(-c2ccccn2)n1 [compound 63]				30 µg/mL (≈ 90.2 µM)	15 µg/mL (≈ 45.1 µM)	30 µg/mL (≈ 90.2 µM)	7.5 µg/mL (≈ 22.6 µM)	*60 μg/mL	*15 μg/mL	3.75 µg/mL (≈ 11.3 µM)	>120 µg/mL	*60 μg/mL
CCCCCCCNc1nc(-c2ccccn2)nc(C)c1C(C)C [compound 68]				15 µg/mL (≈ 45.9 µM)	15 µg/mL (≈ 45.9 µM)	7.5 µg/mL (≈ 23 µM)	3.75 µg/mL (≈ 11.5 µM)	>60 µg/mL	60* μg/mL	7.5 µg/mL (≈ 23 µM)	>120 µg/mL	>30 µg/mL
CCCCCCCCCNc1nc(-c2ccccn2)nc(C)c1C(C)C [compound 70]				7.5 µg/mL (≈ 21.2 µM)	7.5 µg/mL (≈ 21.2 µM)	3.75 µg/mL (≈ 10.6 µM)	1.0 µg/mL (≈ 2.82 µM)	15 µg/mL (≈ 42.3 µM)	*7.5 μg/mL	3.75 µg/mL (≈ 10.6 µM)	>120 µg/mL	>60 µg/mL
CCCCCCCCCCNc1nc(-c2ccccn2)nc(C)c1C(C)C [compound 71]				7.5 µg/mL (≈ 20.3 µM)	7.5 µg/mL (≈ 20.3 µM)	7.5 µg/mL (≈ 20.3 µM)	1.9 µg/mL (≈ 5.16 µM)	*30 μg/mL	60 µg/mL (≈ 163 µM)	5 µg/mL (≈ 13.6 µM)	>80 µg/mL	>60 µg/mL
CCCCCCCCCCNc1cc(CCOC)nc(-c2ccccn2)n1 [compound 83]				15 µg/mL (≈ 40.5 µM)	*15 μg/mL	30 µg/mL (≈ 81 µM)	3.75 µg/mL (≈ 10.1 µM)	>60 µg/mL	>60 µg/mL	7.5 µg/mL (≈ 20.2 µM)	>120 µg/mL	>60 µg/mL
